Results: publication PMC8160793, “Potent Antimicrobial and Antibiofilm Activities of Feleucin-K3 Analogs Modified by α-(4-Pentenyl)-Ala against Multidrug-Resistant Bacteria” (Biomolecules, 2021)
≈ marks a conversion by molar mass, not a printed value. Each block holds one molecule with its values, some of them ahead of it. Square brackets hold non-standard residues; d marks the D form. Peptide text beside a SMILES is read from it. ξ: configuration not given here. ξαMeGly(pent-4-enyl) = C=CCCCC(C)(N)C(=O)O

Assays:
E. coli ATCC 25922 = assay type: cell-based; conditions: ATCC 25922, 18 h
Protocol: (§1) The minimum inhibitory concentration (MIC) of the Feleucin-K3 analogs was tested by the broth microdilution method. Sensitive bacteria and drug-resistant bacteria were diluted to 1 × 10^6 CFU/mL, according to the McFarland standards. Bacterial suspension and peptide solutions (8–128 μg/mL) were incubated at 37 °C for 18 h. The minimum concentration without obvious bacterial growth was the MIC of the peptides. The stability of the analogs in a physiological salt environment was also investigated. In brief, salt powder (450-mM NaCl) was dissolved in deionized water, and the following investigational steps were the same as those described before. The above steps were repeated several times, until the same value was obtained three times.

S. aureus ATCC 25923 = assay type: cell-based, Staphylococcus aureus; conditions: ATCC 25923, 18 h
Protocol: as §1

P. aeruginosa ATCC 27853 = assay type: cell-based, Pseudomonas aeruginosa; conditions: ATCC 27853, 18 h
Protocol: as §1

A. baumannii ATCC 19606 = assay type: cell-based, Acinetobacter baumannii; conditions: ATCC 19606, 18 h
Protocol: as §1

MRSA 113 = assay type: cell-based, Staphylococcus aureus; conditions: 113, 18 h
Protocol: as §1

MRSA 23 = assay type: cell-based, Staphylococcus aureus; conditions: 23, 18 h
Protocol: as §1

MRSA 48 = assay type: cell-based, Staphylococcus aureus; conditions: 48, 18 h
Protocol: as §1

MRSA 51 = assay type: cell-based, Staphylococcus aureus; conditions: 51, 18 h
Protocol: as §1

MRSA 52 = assay type: cell-based, Staphylococcus aureus; conditions: 52, 18 h
Protocol: as §1

MRSA 54 = assay type: cell-based, Staphylococcus aureus; conditions: 54, 18 h
Protocol: as §1

MRSA 71 = assay type: cell-based, Staphylococcus aureus; conditions: 71, 18 h
Protocol: as §1

MRSA 74 = assay type: cell-based, Staphylococcus aureus; conditions: 74, 18 h
Protocol: as §1

MRSA 75 = assay type: cell-based, Staphylococcus aureus; conditions: 75, 18 h
Protocol: as §1

MRSA 936 = assay type: cell-based, Staphylococcus aureus; conditions: 936, 18 h
Protocol: as §1

MRSA ATCC 33591 = assay type: cell-based, Staphylococcus aureus; conditions: ATCC 33591, 18 h
Protocol: as §1

S. aureus 725 = assay type: cell-based, Staphylococcus aureus; conditions: 725, 18 h
Protocol: as §1

S. aureus 794 = assay type: cell-based, Staphylococcus aureus; conditions: 794, 18 h
Protocol: as §1

A. baumannii 51243 = assay type: cell-based, Acinetobacter baumannii; conditions: 51243, 18 h
Protocol: as §1

A. baumannii 5444 = assay type: cell-based, Acinetobacter baumannii; conditions: 5444, 18 h
Protocol: as §1

A. baumannii 822144 = assay type: cell-based, Acinetobacter baumannii; conditions: 822144, 18 h
Protocol: as §1

A. baumannii 8309 = assay type: cell-based, Acinetobacter baumannii; conditions: 8309, 18 h
Protocol: as §1

A. baumannii 91105 = assay type: cell-based, Acinetobacter baumannii; conditions: 91105, 18 h
Protocol: as §1

A. baumannii 91152 = assay type: cell-based, Acinetobacter baumannii; conditions: 91152, 18 h
Protocol: as §1

A. baumannii 91199 = assay type: cell-based, Acinetobacter baumannii; conditions: 91199, 18 h
Protocol: as §1

A. baumannii 91810 = assay type: cell-based, Acinetobacter baumannii; conditions: 91810, 18 h
Protocol: as §1

A. baumannii 91869 = assay type: cell-based, Acinetobacter baumannii; conditions: 91869, 18 h
Protocol: as §1

A. baumannii 91944 = assay type: cell-based, Acinetobacter baumannii; conditions: 91944, 18 h
Protocol: as §1

A. baumannii 9234 = assay type: cell-based, Acinetobacter baumannii; conditions: 9234, 18 h
Protocol: as §1

A. baumannii 92359 = assay type: cell-based, Acinetobacter baumannii; conditions: 92359, 18 h
Protocol: as §1

A. baumannii 9236 = assay type: cell-based, Acinetobacter baumannii; conditions: 9236, 18 h
Protocol: as §1

A. baumannii 9331 = assay type: cell-based, Acinetobacter baumannii; conditions: 9331, 18 h
Protocol: as §1

A. baumannii 9336 = assay type: cell-based, Acinetobacter baumannii; conditions: 9336, 18 h
Protocol: as §1

A. baumannii 97830 = assay type: cell-based, Acinetobacter baumannii; conditions: 97830, 18 h
Protocol: as §1

A. baumannii 98110 = assay type: cell-based, Acinetobacter baumannii; conditions: 98110, 18 h
Protocol: as §1

A. baumannii 9828 = assay type: cell-based, Acinetobacter baumannii; conditions: 9828, 18 h
Protocol: as §1

A. baumannii 9840 = assay type: cell-based, Acinetobacter baumannii; conditions: 9840, 18 h
Protocol: as §1

A. baumannii 9896 = assay type: cell-based, Acinetobacter baumannii; conditions: 9896, 18 h
Protocol: as §1

MIC, E. coli ATCC 25922 (E. coli ATCC 25922): 16 µg/mL (≈ 16.1 µM)
MIC, S. aureus ATCC 25923 (S. aureus ATCC 25923): 16 µg/mL (≈ 16.1 µM)
MIC, P. aeruginosa ATCC 27853 (P. aeruginosa ATCC 27853): 4 µg/mL (≈ 4.03 µM)
MIC, A. baumannii ATCC 19606 (A. baumannii ATCC 19606): 64 µg/mL (≈ 64.4 µM)
Structure (SMILES): C=CCCCC(C)(NC(=O)[C@H](CCCCN)NC(=O)[C@@H](N)CC(C)C)C(=O)N[C@@H](CC(C)C)C(=O)N[C@@H](CCCCN)C(=O)N[C@@H](CCCCN)C(=O)N[C@@H](CC(C)C)C(=O)N[C@@H](CC(C)C)C(N)=O (stereo partly drawn) [Feleucin-K64] (H-LK[ξαMeGly(pent-4-enyl)]LKKLL-NH2)

MIC, E. coli ATCC 25922 (E. coli ATCC 25922): >128 µg/mL
MIC, S. aureus ATCC 25923 (S. aureus ATCC 25923): >128 µg/mL
MIC, P. aeruginosa ATCC 27853 (P. aeruginosa ATCC 27853): >128 µg/mL
MIC, A. baumannii ATCC 19606 (A. baumannii ATCC 19606): >128 µg/mL
Structure (SMILES): C=CCCCC(C)(N)C(=O)N[C@@H](CC(C)C)C(=O)N[C@@H](CCCCN)C(=O)N[C@@H](C)C(=O)N[C@@H](CCCCN)C(=O)N[C@@H](CCCCN)C(=O)N[C@@H](CC(C)C)C(=O)N[C@@H](CC(C)C)C(N)=O (stereo partly drawn) [Feleucin-K66] (H-[ξαMeGly(pent-4-enyl)]LKAKKLL-NH2)

MIC, E. coli ATCC 25922 (E. coli ATCC 25922): 8 µg/mL (≈ 7.01 µM)
MIC, MRSA 113 (MRSA 113): 4 µg/mL (≈ 3.51 µM)
MIC, MRSA 23 (MRSA 23): 4 µg/mL (≈ 3.51 µM)
MIC, MRSA 48 (MRSA 48): 4 µg/mL (≈ 3.51 µM)
MIC, MRSA 51 (MRSA 51): 4 µg/mL (≈ 3.51 µM)
MIC, MRSA 52 (MRSA 52): 4 µg/mL (≈ 3.51 µM)
MIC, MRSA 54 (MRSA 54): 4 µg/mL (≈ 3.51 µM)
MIC, MRSA 71 (MRSA 71): 4 µg/mL (≈ 3.51 µM)
MIC, MRSA 74 (MRSA 74): 4 µg/mL (≈ 3.51 µM)
MIC, MRSA 75 (MRSA 75): 4 µg/mL (≈ 3.51 µM)
MIC, MRSA 936 (MRSA 936): 4 µg/mL (≈ 3.51 µM)
MIC, MRSA ATCC 33591 (MRSA ATCC 33591): 4 µg/mL (≈ 3.51 µM)
MIC, S. aureus 725 (S. aureus 725): 4 µg/mL (≈ 3.51 µM)
MIC, S. aureus 794 (S. aureus 794): 8 µg/mL (≈ 7.01 µM)
MIC, S. aureus ATCC 25923 (S. aureus ATCC 25923): 4 µg/mL (≈ 3.51 µM)
MIC, P. aeruginosa ATCC 27853 (P. aeruginosa ATCC 27853): 8 µg/mL (≈ 7.01 µM)
MIC, A. baumannii 51243 (A. baumannii 51243): 4 µg/mL (≈ 3.51 µM)
MIC, A. baumannii 5444 (A. baumannii 5444): 4 µg/mL (≈ 3.51 µM)
MIC, A. baumannii 822144 (A. baumannii 822144): 4 µg/mL (≈ 3.51 µM)
MIC, A. baumannii 8309 (A. baumannii 8309): 4 µg/mL (≈ 3.51 µM)
MIC, A. baumannii 91105 (A. baumannii 91105): 4 µg/mL (≈ 3.51 µM)
MIC, A. baumannii 91152 (A. baumannii 91152): 4 µg/mL (≈ 3.51 µM)
MIC, A. baumannii 91199 (A. baumannii 91199): 4 µg/mL (≈ 3.51 µM)
MIC, A. baumannii 91810 (A. baumannii 91810): 4 µg/mL (≈ 3.51 µM)
MIC, A. baumannii 91869 (A. baumannii 91869): 4 µg/mL (≈ 3.51 µM)
MIC, A. baumannii 91944 (A. baumannii 91944): 4 µg/mL (≈ 3.51 µM)
MIC, A. baumannii 9234 (A. baumannii 9234): 4 µg/mL (≈ 3.51 µM)
MIC, A. baumannii 92359 (A. baumannii 92359): 4 µg/mL (≈ 3.51 µM)
MIC, A. baumannii 9236 (A. baumannii 9236): 4 µg/mL (≈ 3.51 µM)
MIC, A. baumannii 9331 (A. baumannii 9331): 8 µg/mL (≈ 7.01 µM)
MIC, A. baumannii 9336 (A. baumannii 9336): 4 µg/mL (≈ 3.51 µM)
MIC, A. baumannii 97830 (A. baumannii 97830): 4 µg/mL (≈ 3.51 µM)
MIC, A. baumannii 98110 (A. baumannii 98110): 4 µg/mL (≈ 3.51 µM)
MIC, A. baumannii 9828 (A. baumannii 9828): 4 µg/mL (≈ 3.51 µM)
MIC, A. baumannii 9840 (A. baumannii 9840): 4 µg/mL (≈ 3.51 µM)
MIC, A. baumannii 9896 (A. baumannii 9896): 4 µg/mL (≈ 3.51 µM)
MIC, A. baumannii ATCC 19606 (A. baumannii ATCC 19606): 4 µg/mL (≈ 3.51 µM)
Structure (SMILES): C=CCCCC(C)(NC(=O)[C@@H](N)Cc1ccccc1)C(=O)N[C@@H](CCCCN)C(=O)N[C@@H](CC(C)C)C(=O)N[C@@H](CC(C)C)C(=O)N[C@@H](CCCCN)C(=O)N[C@@H](CCCCN)C(=O)N[C@@H](CC(C)C)C(=O)N[C@@H](CC(C)C)C(N)=O (stereo partly drawn) [Feleucin-K67] (H-F[ξαMeGly(pent-4-enyl)]KLLKKLL-NH2)
